Source: patent US11517617B2, “Methods and compositions for preventing influenza infection” (THE UNIVERSITY OF MELBOURNE, priority 2017, dated 2022)

Tested on: memory CD8^+ T cells within PBMCs
Type: cell-based, human

| Sequence | cross-reactivity of CD8^+ T cells after in vitro expansion with the peptide | recognition of IBV-derived variant by IAV-expanded CD8^+ T cells |
| --- | --- | --- |
| YEDLRVLSA (Influenza B virus) [BNP394-401] | could not expand CD8^+ T cells | to a lesser extent |
| FEDLRVLSA (Influenza A virus) [NP338-345] | recognizing both IAV- and IBV-derived peptides | – |
